# Experimental data taken from patent US20240398811A1, “PRC2 INHIBITORS FOR USE IN TREATING BLOOD DISORDERS” (ORIC Pharmaceuticals, Inc., priority 2021, published 2024).
# pIC50: −log10 of the molar value.
# Molecular target: purified human, His-tagged PRC2 complex (Homo sapiens (Human), UniProt O75530)
# Assay: Hot Spot HMT assay, inhibition of PRC2 enzymatic activity
# Type: biochemical
# Conditions: 10 nM PRC2 complex, 1 μM 3H-SAM, core histone H3, 10-point dose-response
# Text: The assay uses purified human, His-tagged PRC2 complex, including N-terminal His-tagged EZH2 enzyme, N-terminal Flag-tagged embryonic ectoderm development protein (EED), N-terminal His-tagged suppressor of zeste 12 (SUZ12), N-terminal His-tagged AEBP2, and N-terminal His-tagged RbAp48. In this assay, the transfer of the tritiated methyl group from radiolabeled S-adenosyl methionine (SAM) to purified core histone protein by EZH2 is quantitated after filtration to determine the activity of the core PRC2 complex in the presence and absence of compound.
# The initial starting concentration for the serial dilutions of each compound was 1.0 μM. […] SAH (S-(5-adenosyl)-L-homocysteine) was used as a positive control for assay validation.
# An aliquot of each serial dilution of test compound was added to deep 384 well plate using Acoustic Technology instrument (Echo 550, LabCyte) containing reaction buffer (50 mM Tris-HCl (pH 8.)), 0.01% Brij35, 1 mM EDTA, 1 mM DTT, 1 mM PMSF and 1% DMSO), 10 nM purified PRC2 complex and 0.05 mg/ml core histone H3 in a 5 μl volume. The reaction was mixed gently and then pre-incubated for 20 min at 30° C. The enzymatic reaction was initiated by adding 1 μM S-Adenosyl-L-[methyl-^3H]methionine and incubated for 1 hr at 30° C. After 1 hr, the reaction product was detected using a filter binding method and the amount of tritiated H3 core histone was quantitated using a scintillation counter. […] Key: A=<100 nM; B=>100 nM-<500 nM; and C=>500 nM.
# purified human, His-tagged PRC2 complex, sequence (O75530 whole entry): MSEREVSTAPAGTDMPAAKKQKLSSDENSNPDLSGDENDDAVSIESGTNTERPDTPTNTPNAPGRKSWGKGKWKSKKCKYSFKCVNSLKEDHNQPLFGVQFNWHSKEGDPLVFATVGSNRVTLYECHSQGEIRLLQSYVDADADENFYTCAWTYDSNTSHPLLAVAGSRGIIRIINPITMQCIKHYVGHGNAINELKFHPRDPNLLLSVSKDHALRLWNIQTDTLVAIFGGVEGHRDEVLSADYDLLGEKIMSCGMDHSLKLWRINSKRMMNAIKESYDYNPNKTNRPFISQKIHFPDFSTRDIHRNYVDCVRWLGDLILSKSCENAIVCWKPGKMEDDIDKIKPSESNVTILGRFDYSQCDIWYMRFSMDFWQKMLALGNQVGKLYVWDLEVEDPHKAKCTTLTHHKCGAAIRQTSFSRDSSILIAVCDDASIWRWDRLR
# purified human, His-tagged PRC2 complex, sequence (Q15910 whole entry partner): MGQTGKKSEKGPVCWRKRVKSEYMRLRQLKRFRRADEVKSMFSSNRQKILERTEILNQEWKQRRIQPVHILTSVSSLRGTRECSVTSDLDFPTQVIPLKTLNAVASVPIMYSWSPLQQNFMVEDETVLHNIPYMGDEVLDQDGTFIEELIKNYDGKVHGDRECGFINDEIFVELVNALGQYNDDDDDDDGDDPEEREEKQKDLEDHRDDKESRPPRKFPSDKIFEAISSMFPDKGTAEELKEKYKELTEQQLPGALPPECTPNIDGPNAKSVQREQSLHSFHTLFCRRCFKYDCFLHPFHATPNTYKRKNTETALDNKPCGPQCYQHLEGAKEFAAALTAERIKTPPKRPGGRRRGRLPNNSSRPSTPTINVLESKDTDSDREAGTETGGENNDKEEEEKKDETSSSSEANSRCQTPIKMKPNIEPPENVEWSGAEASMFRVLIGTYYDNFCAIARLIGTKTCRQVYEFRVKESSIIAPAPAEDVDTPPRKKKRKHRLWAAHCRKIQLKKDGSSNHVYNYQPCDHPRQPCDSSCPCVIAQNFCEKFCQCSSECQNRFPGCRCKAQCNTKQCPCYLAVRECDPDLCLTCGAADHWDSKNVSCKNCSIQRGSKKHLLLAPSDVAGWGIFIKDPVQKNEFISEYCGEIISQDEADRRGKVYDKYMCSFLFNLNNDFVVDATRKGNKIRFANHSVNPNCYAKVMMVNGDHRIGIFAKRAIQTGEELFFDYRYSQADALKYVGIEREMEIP
# purified human, His-tagged PRC2 complex, sequence (Q15022 whole entry partner): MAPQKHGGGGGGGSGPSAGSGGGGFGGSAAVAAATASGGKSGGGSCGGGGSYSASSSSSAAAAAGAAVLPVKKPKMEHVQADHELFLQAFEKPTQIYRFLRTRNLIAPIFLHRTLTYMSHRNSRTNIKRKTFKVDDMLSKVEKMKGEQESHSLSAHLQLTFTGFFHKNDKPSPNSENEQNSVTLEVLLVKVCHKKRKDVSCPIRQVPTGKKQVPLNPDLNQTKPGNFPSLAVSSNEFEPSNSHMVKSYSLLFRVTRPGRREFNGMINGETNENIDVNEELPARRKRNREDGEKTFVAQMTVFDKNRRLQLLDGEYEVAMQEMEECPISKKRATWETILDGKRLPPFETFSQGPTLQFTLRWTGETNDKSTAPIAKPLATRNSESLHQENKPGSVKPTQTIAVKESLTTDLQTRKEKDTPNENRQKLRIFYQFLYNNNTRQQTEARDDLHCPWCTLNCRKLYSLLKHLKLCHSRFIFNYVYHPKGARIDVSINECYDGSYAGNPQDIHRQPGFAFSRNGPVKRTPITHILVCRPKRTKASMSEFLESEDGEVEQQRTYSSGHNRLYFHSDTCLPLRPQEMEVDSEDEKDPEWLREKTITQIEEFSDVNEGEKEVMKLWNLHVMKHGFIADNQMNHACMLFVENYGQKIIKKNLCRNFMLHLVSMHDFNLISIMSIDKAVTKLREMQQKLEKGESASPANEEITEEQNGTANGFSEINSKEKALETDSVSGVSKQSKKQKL
# purified human, His-tagged PRC2 complex, sequence (Q6ZN18 whole entry partner): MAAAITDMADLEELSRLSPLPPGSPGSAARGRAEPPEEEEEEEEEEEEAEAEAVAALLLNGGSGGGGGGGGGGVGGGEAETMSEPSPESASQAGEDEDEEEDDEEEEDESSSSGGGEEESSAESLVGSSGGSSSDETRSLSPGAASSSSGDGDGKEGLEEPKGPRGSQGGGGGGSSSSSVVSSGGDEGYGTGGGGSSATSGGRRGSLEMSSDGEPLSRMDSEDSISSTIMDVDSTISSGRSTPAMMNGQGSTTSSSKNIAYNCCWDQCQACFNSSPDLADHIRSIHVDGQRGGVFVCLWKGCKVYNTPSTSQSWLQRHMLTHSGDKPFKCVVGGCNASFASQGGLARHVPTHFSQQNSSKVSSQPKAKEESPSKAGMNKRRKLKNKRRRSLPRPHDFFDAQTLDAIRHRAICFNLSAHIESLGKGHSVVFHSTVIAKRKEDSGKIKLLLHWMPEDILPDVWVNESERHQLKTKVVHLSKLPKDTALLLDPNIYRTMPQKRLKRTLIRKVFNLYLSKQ
# purified human, His-tagged PRC2 complex, sequence (Q09028 whole entry partner): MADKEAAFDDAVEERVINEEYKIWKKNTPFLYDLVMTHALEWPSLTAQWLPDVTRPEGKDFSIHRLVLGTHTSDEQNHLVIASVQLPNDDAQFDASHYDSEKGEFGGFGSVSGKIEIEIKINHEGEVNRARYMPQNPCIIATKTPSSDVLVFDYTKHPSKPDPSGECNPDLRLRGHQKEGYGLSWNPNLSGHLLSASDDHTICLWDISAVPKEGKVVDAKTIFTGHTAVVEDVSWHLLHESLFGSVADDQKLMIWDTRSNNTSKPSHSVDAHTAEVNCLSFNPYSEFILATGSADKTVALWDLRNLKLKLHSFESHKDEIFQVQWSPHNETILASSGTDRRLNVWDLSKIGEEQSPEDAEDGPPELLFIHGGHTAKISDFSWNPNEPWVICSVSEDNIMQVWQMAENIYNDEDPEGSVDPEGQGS
row,Compound,pIC50
1,"CN(C)Cc1cc(F)c(-c2cnc(NCc3c(F)ccc4c3CCO4)n3cc(C#N)nc23)cc1F [Example 39, 8-(4-((dimethylamino)methyl)-2,5-difluorophenyl)-5-(((5-fluoro-2,3-dihydrobenzofuran-4-yl)methyl)amino)imidazo[1,2-c]pyrimidine-2-carbonitrile]",> 7.00
2,"Cc1cc(C(=O)N(C)C)ccc1-c1cnc(NCc2c(F)ccc3c2CCO3)n2cc(C#N)nc12 [Example 44, 4-(2-cyano-5-(((5-fluoro-2,3-dihydrobenzofuran-4-yl)methyl)amino)imidazo[1,2-c]pyrimidin-8-yl)-N,N,3-trimethylbenzamide]",> 7.00
3,"CN(C)C(=O)c1c(F)cc(-c2cnc(NCc3c(F)ccc4c3CCO4)n3cc(C#N)nc23)cc1F [Example 45, 4-(2-cyano-5-(((5-fluoro-2,3-dihydrobenzofuran-4-yl)methyl)amino)imidazo[1,2-c]pyrimidin-8-yl)-2,6-difluoro-N,N-dimethylbenzamide]",> 7.00
4,"N#Cc1cn2c(NCc3c(F)ccc4c3CCO4)ncc(-c3ccccc3)c2n1 [Example 46, 5-(((5-fluoro-2,3-dihydrobenzofuran-4-yl)methyl)amino)-8-phenylimidazo[1,2-c]pyrimidine-2-carbonitrile]",> 7.00
5,"N#Cc1cn2c(NCc3c(F)ccc4c3CCO4)ncc(-c3ccc(CN4CCCC4=O)cc3)c2n1 [Example 49, 5-(((5-fluoro-2,3-dihydrobenzofuran-4-yl)methyl)amino)-8-(4-((2-oxopyrrolidin-1-yl)methyl)phenyl)imidazo[1,2-c]pyrimidine-2-carbonitrile]",> 7.00
6,"N#Cc1cn2c(NCc3c(F)ccc4c3CCO4)ncc(-c3ccc(CN4CC(F)(F)C4)cc3)c2n1 [Example 51, 8-(4-((3,3-difluoroazetidin-1-yl)methyl)phenyl)-5-(((5-fluoro-2,3-dihydrobenzofuran-4-yl)methyl)amino)imidazo[1,2-c]pyrimidine-2-carbonitrile]",> 7.00
7,"N#Cc1cn2c(NCc3c(F)ccc4c3CCO4)ncc(-c3ccc(CN4CC5CC5C4)cc3)c2n1 (stereo not shown) [Example 52, 8-(4-((3-azabicyclo[3.1.0]hexan-3-yl)methyl)phenyl)-5-(((5-fluoro-2,3-dihydrobenzofuran-4-yl)methyl)amino)imidazo[1,2-c]pyrimidine-2-carbonitrile]",> 7.00
8,"COC1CCN(Cc2ccc(-c3cnc(NCc4c(F)ccc5c4CCO5)n4cc(C#N)nc34)cc2)C1 (stereo not shown) [Example 53, 5-(((5-fluoro-2,3-dihydrobenzofuran-4-yl)methyl)amino)-8-(4-((3-methoxypyrrolidin-1-yl)methyl)phenyl)imidazo[1,2-c]pyrimidine-2-carbonitrile]",> 7.00
9,"N#Cc1cn2c(NCc3c(F)ccc4c3CCO4)ncc(-c3ccc(CN4CCC(F)(F)C4)cc3)c2n1 [Example 55, 8-(4-((3,3-difluoropyrrolidin-1-yl)methyl)phenyl)-5-(((5-fluoro-2,3-dihydrobenzofuran-4-yl)methyl)amino)imidazo[1,2-c]pyrimidine-2-carbonitrile]",> 7.00
10,"Cc1nc(N2CCOCC2)ccc1-c1cnc(NCc2c(F)ccc3c2CCO3)n2cc(C#N)nc12 [Example 56, 5-(((5-fluoro-2,3-dihydrobenzofuran-4-yl)methyl)amino)-8-(2-methyl-6-morpholinopyridin-3-yl)imidazo[1,2-c]pyrimidine-2-carbonitrile]",> 7.00

# Now from value to molecule:
row,pIC50,Compound
1,> 7.00,"CN(C)C(=O)c1cc(F)c(-c2cnc(NCc3c(F)ccc4c3CCO4)n3cc(C#N)nc23)cc1F [Example 38, 4-(2-cyano-5-(((5-fluoro-2,3-dihydrobenzofuran-4-yl)methyl)amino)imidazo[1,2-c]pyrimidin-8-yl)-2,5-difluoro-N,N-dimethylbenzamide]"
2,> 7.00,"CN(C)Cc1ncc(-c2cnc(NCc3c(F)ccc4c3CCO4)n3cc(C#N)nc23)cc1F [Example 40, 8-(6-((dimethylamino)methyl)-5-fluoropyridin-3-yl)-5-(((5-fluoro-2,3-dihydrobenzofuran-4-yl)methyl)amino)imidazo[1,2-c]pyrimidine-2-carbonitrile]"
3,> 7.00,"Cc1cc(-c2cnc(NCc3c(F)ccc4c3CCO4)n3cc(C#N)nc23)cnn1 [Example 41, 5-(((5-fluoro-2,3-dihydrobenzofuran-4-yl)methyl)amino)-8-(6-methylpyridazin-4-yl)imidazo[1,2-c]pyrimidine-2-carbonitrile]"
4,> 7.00,"CN(C)C(=O)c1ccc(-c2cnc(NCc3c(F)ccc4c3CCO4)n3cc(C#N)nc23)c(F)c1F [Example 42, 4-(2-cyano-5-(((5-fluoro-2,3-dihydrobenzofuran-4-yl)methyl)amino)imidazo[1,2-c]pyrimidin-8-yl)-2,3-difluoro-N,N-dimethylbenzamide]"
5,> 7.00,"Cc1cc(C(=O)N(C)C)c(F)cc1-c1cnc(NCc2c(F)ccc3c2CCO3)n2cc(C#N)nc12 [Example 43, 4-(2-cyano-5-(((5-fluoro-2,3-dihydrobenzofuran-4-yl)methyl)amino)imidazo[1,2-c]pyrimidin-8-yl)-2-fluoro-N,N,5-trimethylbenzamide]"
6,> 7.00,"N#Cc1cn2c(NCc3c(F)ccc4c3CCO4)ncc(-c3ccc(S(N)(=O)=O)cc3)c2n1 [Example 47, 4-(2-cyano-5-(((5-fluoro-2,3-dihydrobenzofuran-4-yl)methyl)amino)imidazo[1,2-c]pyrimidin-8-yl)benzenesulfonamide]"
7,> 7.00,"Cc1cc(S(=O)(=O)N(C)C)ccc1-c1cnc(NCc2c(F)ccc3c2CCO3)n2cc(C#N)nc12 [Example 48, 4-(2-cyano-5-(((5-fluoro-2,3-dihydrobenzofuran-4-yl)methyl)amino)imidazo[1,2-c]pyrimidin-8-yl)-N,N,3-trimethylbenzenesulfonamide]"
8,> 7.00,"COC1CN(Cc2ccc(-c3cnc(NCc4c(F)ccc5c4CCO5)n4cc(C#N)nc34)cc2)C1 [Example 50, 5-(((5-fluoro-2,3-dihydrobenzofuran-4-yl)methyl)amino)-8-(4-((3-methoxyazetidin-1-yl)methyl)phenyl)imidazo[1,2-c]pyrimidine-2-carbonitrile]"
9,> 7.00,"N#Cc1cn2c(NCc3c(F)ccc4c3CCO4)ncc(-c3ccc(CN4CCC(F)C4)cc3)c2n1 (stereo not shown) [Example 54, 5-(((5-fluoro-2,3-dihydrobenzofuran-4-yl)methyl)amino)-8-(4-((3-fluoropyrrolidin-1-yl)methyl)phenyl)imidazo[1,2-c]pyrimidine-2-carbonitrile]"
10,> 7.00,"N#Cc1cn2c(NCc3c(F)ccc4c3CCO4)ncc(-c3ccncn3)c2n1 [Example 57, 5-(((5-fluoro-2,3-dihydrobenzofuran-4-yl)methyl)amino)-8-(pyrimidin-4-yl)imidazo[1,2-c]pyrimidine-2-carbonitrile]"
11,> 7.00,"CN(C)S(=O)(=O)c1ccc(-c2cnc(NCc3c(F)ccc4c3CCO4)n3cc(C#N)nc23)cc1 [Example 58, 4-(2-cyano-5-(((5-fluoro-2,3-dihydrobenzofuran-4-yl)methyl)amino)imidazo[1,2-c]pyrimidin-8-yl)-N,N-dimethylbenzenesulfonamide]"
12,> 7.00,"CNS(=O)(=O)c1ccc(-c2cnc(NCc3c(F)ccc4c3CCO4)n3cc(C#N)nc23)cc1 [Example 59, 4-(2-cyano-5-(((5-fluoro-2,3-dihydrobenzofuran-4-yl)methyl)amino)imidazo[1,2-c]pyrimidin-8-yl)-N-methylbenzenesulfonamide]"
